pIC50, pKd: −log10 of the molar value. Converted amounts (≈) assume the structure as drawn. “And” between values parts separate entries of the source, which are not always exact repeats. Identical values can stand only once. Like-named read-outs stand apart in the source and are kept apart here.
Key:
[1] = test system: S. aureus; details: cited from earlier work
[2] = test system: S. aureus; set-up: method as in PMID 24592914; details: cited from earlier work; for Effect on frequency and severity of arthritis: murine S. aureus arthritis model
[3] = test system: S. aureus biofilms; set-up: method as in PMID 19807189; details: cited from earlier work
[4] = test system: S. aureus; set-up: method as in PMID 15623555, PMID 19807189; details: sub-growth inhibitory concentrations; cited from earlier work
[5] = test system: S. aureus strain USA300; assay: MIC by broth microdilution (CLSI), strain USA300; type: cell-based; details: Staphylococcus aureus; USA300 (MRSA), Mueller–Hinton broth
Protocol: (§1) Community-acquired MRSA (CA-MRSA) strain USA300, its isogenic agr mutant,[17] the hospital-acquired MRSA (HA-MRSA) strain BH1CC,[18] the HA-MSSA strain BH48[19] and the MSSA strain SH1000[20] were cultured in Mueller–Hinton broth for susceptibility testing or in RPMI-1640 (Gibco) for biofilm formation. For the rat jugular vein catheter infection model, the S. aureus strain USA300 (LAC) lux[21] was used.
(§2) 5HE-C14-TMA and C14-TOA were synthesized as described previously[9] and C14-TTA as described in the Supplementary data available at JAC Online. Stock solutions of the compounds in DMSO at 10–50 mM were further diluted into tissue culture media or sodium chloride for the in vivo experiments. A DMSO solvent control was used in all in vitro experiments. The following antibiotics were used: vancomycin (Vancocin; Flynn Pharma Ltd., Republic of Ireland), daptomycin (Cubicin; Novartis, UK), gentamicin (Hospira, UK) and tigecycline (Tygacil; Pfizer Inc.). MICs were determined by broth microdilution in Mueller–Hinton broth, as recommended by the CLSI.

[6] = test system: S. aureus strain BH1CC; assay: MIC by broth microdilution (CLSI), strain BH1CC; type: cell-based; details: Staphylococcus aureus; BH1CC (MRSA), Mueller–Hinton broth
Protocol: as §1, §2

[7] = test system: S. aureus strain SH1000; assay: MIC by broth microdilution (CLSI), strain SH1000; type: cell-based; details: Staphylococcus aureus; SH1000 (MSSA), Mueller–Hinton broth
Protocol: as §1, §2

[8] = test system: S. aureus strain BH48; assay: MIC by broth microdilution (CLSI), strain BH48; type: cell-based; details: Staphylococcus aureus; BH48 (MSSA), Mueller–Hinton broth
Protocol: as §1, §2

[9] = test system: MRSA (USA300 JE2 and BH1CC) and MSSA (SH1000 and BH48) strains; assay: MIC by broth microdilution, MRSA and MSSA strains; type: cell-based, Staphylococcus aureus; details: MRSA and MSSA strains investigated
Protocol: as §1, §2

[10] = test system: S. aureus biofilms; assay: Biofilm susceptibility, resazurin-conversion assay on plasma-coated wells; type: cell-based, Staphylococcus aureus; set-up: Reduction of MRSA biofilm viability: dose or concentration left out as unconfirmed; details: for Reduction of biofilm viability: 512 and 1024 mg/L, 24 h treatment; for Comparative anti-biofilm activity: MRSA and MSSA biofilms, compared with the other agents evaluated
Protocol: Biofilms were formed as previously described to mimic in vivo conditions that promote formation of coagulase-mediated biofilms.[16] Briefly, microtitre plates or glass-bottom culture dishes (MaTek Co., USA) were coated with either 20% (v/v) or 100% (v/v) human plasma, respectively, and inoculated with S. aureus at an OD600 ∼0.2. After 1 h, non-adherent bacteria were aspirated, replaced with fresh RPMI-1640 and biofilms allowed to form over 24 h at 37 °C. Pre-formed biofilms were treated for 24 h with either 5HE-C14-TMA, C14-TOA or C14-TTA or a positive control [ethanol at 40% (v/v)]. Biofilm viability was measured by (i) resazurin-conversion assay (in microtitre wells), or (ii) live/dead imaging (glass-bottom dishes). Conversion of the non-fluorescent redox dye, resazurin into the fluorescent resorufin was performed as described previously.[16] A 44 μM resazurin (Sigma-Aldrich, UK) solution in RPMI-1640 was added to an equal biofilm volume and incubated for 1 h at 37 °C. Fluorescence (excitation 544 nm, emission 590 nm) was quantified using a Perkin Elmer 2030 Multilabel Reader Victor^TM X3. Biofilms were stained with SYTO9 Green (at 13.36 μM) and propidium iodide (at 80 μM) (Molecular Probes®) for 1 h prior to washing. Four representative images at ×40 and ×100 were obtained per experimental group, per experiment using a Zeiss LSM 510 META confocal microscope. Each experiment was repeated at least three times. Fluorescence intensity was quantified using Image J1 software (http://imagej.net/Welcome).

[11] = MTT cell viability assay, HaCaT; type: cell-based, Human; details: human, HaCaT keratinocyte cells; HaCaT, MTT, 24 h
Protocol: (§3) Human keratinocyte (HaCaT) cells were cultured in DMEM supplemented with 10% (v/v) FBS. Primary human umbilical vein endothelial cells (HUVECs) were cultured in EGM™-2 Bulletkit (Lonza) medium. HaCaT and HUVECs were harvested using TrypLE^TM Express (Gibco). Cells were seeded in microtitre plates at 3 × 10^5 cells/mL and incubated for 24 h at 37 °C with an antimicrobial compound ([…]) or Triton X100 at 1% (v/v). After removing the medium, cells were incubated with 500 mg/L MTT (Sigma-Aldrich) for 4 h. The crystals formed were solubilized with DMSO. Absorbance was recorded at 560 nm and the CC50 was determined.

[12] = test system: Human keratinocyte (HaCaT) cells; assay: MTT cell viability assay, HaCaT; type: cell-based; details: HaCaT cells
Protocol: as §3

[13] = MTT cell viability assay, HUVEC; type: cell-based, human; details: human, primary HUVECs (umbilical vein endothelial cells); HUVEC, MTT, 24 h
Protocol: as §3

[14] = test system: Primary human umbilical vein endothelial cells (HUVECs); assay: MTT cell viability assay, HUVEC; type: cell-based; details: HUVECs
Protocol: as §3

[15] = Haemolysis assay; type: cell-based; details: red blood cells; human RBC; read-out: CC50 (haemolytic activity)
Protocol: Human blood containing EDTA (1.6 g/L) was centrifuged at 1000 g for 5 min. Red blood cells (RBC) were washed twice with PBS, diluted 2-fold and incubated with compounds or Triton X100 (positive control) at 0.5% (v/v). A570 was determined to quantify haemolysis. IC50s were derived from the corresponding dose–response curves.

[16] = Iron chelation; type: physicochemical; details: data not shown
[17] = test system: agr quorum sensing system; set-up: method as in PMID 24592914; details: S. aureus; cited from earlier work
[18] = test system: staphylococcal membrane; set-up: method as in PMID 24592914; details: binding to the staphylococcal membrane, single site model; cited from earlier work
[19] = test system: S. aureus USA300 LAC; assay: Bactericidal activity (time-kill, viable counts); type: cell-based, Staphylococcus aureus; details: 8 × MIC, planktonic USA300
Protocol: S. aureus USA300 LAC was grown overnight in LB medium, diluted 250-fold and grown to an OD600 0.5. Cells were diluted to 1 × 10^6 per mL in challenge medium (LB plus 5HE-C14-TMA, C14-TOA or C14-TTA at 8 × MIC). Samples were removed and viable counts determined at 30 min intervals for the first hour followed by hourly sampling. The CLSI defines a compound as bactericidal if it reduces the starting inoculum colony count by at least 99.9% (3-logs).

[20] = test system: S. aureus strain USA300 LAC; assay: Membrane permeabilization: ATP release; type: cell-based, Staphylococcus aureus; details: 0-100 μM, 1 h
Protocol: (§4) Membrane permeabilization was evaluated by quantifying (i) ATP release,[22] and (ii) the uptake of propidium iodide.[22]S. aureus strain USA300 LAC was grown overnight in CYGP medium,[9] washed with sodium phosphate buffer (100 mM, pH 7), re-suspended to OD600 0.1 and incubated at 37 °C with a range of concentrations of each compound for 1 h. Nisin (0.6 μM) was used as a positive control. Cell-free supernatants were assayed for ATP using the Cell Titre-Glo kit (Promega). Staphylococcal cells were re-suspended in 100 mM sodium phosphate buffer (pH 7) containing propidium iodide (10 mg/L), incubated in the dark at room temperature for 10 min. After washing, propidium iodide fluorescence (excitation: 575 nm; emission 630 nm) was determined.

[21] = test system: S. aureus strain USA300 LAC; assay: Membrane permeabilization: propidium iodide uptake; type: cell-based, Staphylococcus aureus; details: 0-100 μM, 1 h
Protocol: as §4

In the case of CCCCCCCCCC(=O)CC(=O)N[C@H]1CCOC1=O [3-oxo-C12-HSL, N-(3-oxododecanoyl)-L-homoserine lactone, reference compound], the MIC ([1]; S. aureus growth) is listed as 100 μM and 30 mg/L.
For CCCCCCCCCC(=O)C1C(=O)NC(CCO)C1=O (centres unmarked) [5HE-C10-TMA, 5-hydroxyethyl-3-decanoyltetramic acid], the “Toxicity in murine arthritis model” value [2] is listed as “neither C14-TOA nor 5HE-C10-TMA were toxic”, the “Effect on frequency and severity of arthritis” value [2] is listed as “inactive” and the “Activity against S. aureus biofilms” value ([3]; at 200 mg/L) is listed as “inactive”. For the same compound, the “Efficacy against S. aureus biofilms” value [3] was “no efficacy” and the “Selection for resistance on serial passage” value [4] was “did not select for resistance”.
In the case of CCCCCCCCCC(=O)C1C(=O)CNC1=O (centres unmarked) [C10-TMA, reference compound], the “Antibacterial activity after removal of the 5-hydroxyethyl moiety of 5HE-C10-TMA” value [1] is given as “did not reduce antibacterial activity”.
With CCCCCCCCCCCCCC(=O)C1=C(O)OCC1=O [C14-TOA, 3-tetradecanoyltetronic acid] the MIC [5] was 12.5 µM and 4 µg/mL, the MIC [6] was 12.5 µM and 4 µg/mL and the MIC [7] was 12.5 µM and 4 µg/mL. The MIC [8] was 12.5 µM and 4 µg/mL, the MIC [9] was 4 µg/mL (≈ 12.9 µM) and the MIC ([9]; Staphylococcus aureus) was 2 to 4 µg/mL (≈ 6.44 to 12.9 µM). The “Reduction of biofilm viability” value ([10]; resazurin) was 2.5–3 fold, the Comparative anti-biofilm activity [10] was “far less effective” and the CC50 at 24 h [11] was 257 µM and 80 µg/mL. The “Selectivity index (SI, CC50/MIC)” value [12] was 20, the CC50 at 24 h [13] was 28 µM and 9 µg/mL and the “Selectivity index (SI, CC50/MIC)” value [14] was 2.3. The CC50 [15] was > 2.05 mM and > 667 µg/mL, the Iron chelation [16] was “do not chelate iron” and the MIC ([1]; towards S. aureus) was 25 µM (≈ 7.76 µg/mL). For the same compound, the pIC50 [17] was 5.52, the pKd [18] was 5.70 and the “Toxicity in murine arthritis model” value [2] was “neither C14-TOA nor 5HE-C10-TMA were toxic”. For the same compound, the “Effect on frequency and severity of arthritis” value [2] was “significantly reduced the frequency and severity of arthritis and joint destruction” and the “Numbers of viable staphylococci in the kidneys” value ([2]; murine S. aureus infection model) was “did not, however, reduce”.
For CCCCCCCCCCCCCC(=O)C1=C(O)SCC1=O [C14-TTA, 3-tetradecanoylthiotetronic acid], the MIC [5] was 12.5 µM and 4 µg/mL, the MIC [6] was 12.5 µM and 4 µg/mL and the MIC [7] was 12.5 µM and 4 µg/mL. For the same compound, the MIC [8] was 12.5 µM and 4 µg/mL, the MIC [9] was 4 µg/mL (≈ 12.3 µM) and the MIC ([9]; Staphylococcus aureus) was 2 to 4 µg/mL (≈ 6.13 to 12.3 µM). For the same compound, the “Bactericidal activity (CLSI: at least 3-log reduction)” value [19] was “bactericidal”, the “Extracellular ATP levels (ATP release relative to nisin 0.6 μM)” value [20] was “least active” and the “Propidium iodide fluorescence (uptake relative to nisin 0.6 μM)” value [21] was “least active”. For the same compound, the “Reduction of biofilm viability” value ([10]; resazurin) was 2.5–3 fold, the Comparative anti-biofilm activity [10] was “far less effective” and the CC50 at 24 h [11] was 26 µM and 8.3 µg/mL. The “Selectivity index (SI, CC50/MIC)” value [12] was 2, the CC50 [15] was 470 µM and 153 µg/mL and the Iron chelation [16] was “do not chelate iron”.
For CCCCCCCCCC(=O)N[C@@H](Cc1c[nH]c2ccccc12)C(=O)N[C@H](CC(N)=O)C(=O)N[C@@H](CC(=O)O)C(=O)N[C@@H]1C(=O)NCC(=O)N[C@@H](CCCN)C(=O)N[C@@H](CC(=O)O)C(=O)N[C@H](C)C(=O)N[C@@H](CC(=O)O)C(=O)NCC(=O)N[C@H](CO)C(=O)N[C@@H]([C@H](C)CC(=O)O)C(=O)N[C@@H](CC(=O)c2ccccc2N)C(=O)O[C@@H]1C [daptomycin, reference compound], the Comparative anti-biofilm activity [10] was “most active antimicrobial evaluated”.
For CN[C@H](CC(C)C)C(=O)N[C@H]1C(=O)N[C@@H](CC(N)=O)C(=O)N[C@H]2C(=O)N[C@H]3C(=O)N[C@H](C(=O)N[C@H](C(=O)O)c4cc(O)cc(O)c4-c4cc3ccc4O)[C@H](O)c3ccc(c(Cl)c3)Oc3cc2cc(c3O[C@@H]2O[C@H](CO)[C@@H](O)[C@H](O)[C@H]2O[C@H]2C[C@](C)(N)[C@H](O)[C@H](C)O2)Oc2ccc(cc2Cl)[C@H]1O [vancomycin, reference compound], the “Reduction of MRSA biofilm viability” value ([10]; MRSA biofilm, resazurin) was 3.5–4 fold.

— publication PMC5400099, “5-Hydroxyethyl-3-tetradecanoyltetramic acid represents a novel treatment for intravascular catheter infections due to Staphylococcus aureus” (Journal of Antimicrobial Chemotherapy, 2016)
